In brackets after ≈: the same amount, converted by molar mass.
Experiment: Toxicity against Artemia salina
Format: organism-based
Details: in vivo

CC(C)=CC1Oc2cc(O)c(O)cc2-c2oc3cc(O)cc(O)c3c(=O)c21 (stereo unspecified) [CYCLOCHAMPEDOL]
LC50: 15.1 µg/mL (≈ 41 µM)
